Measurements taken from patent publication US20260263340A1, “Cosmetic Products and Cleaning Products Stabilized Against Microbial Attack” (Thor GmbH, priority 2023, published 2026).

How the values were obtained:
bacteria mixture 1 = experiment: Repeated-inoculation microbiological stress test of all-purpose cleaner, bacteria mixture 1; assay type: cell-based; design: key to Bacterial growth after inoculation: 0: No growth; Minimal growth, 1 to 10 colonies visible over the entire streak; 2: Light growth, maximum 100 colonies; Moderate growth, maximum 300 to 400 colonies; Uniform growth, >400 colonies, single colonies still clearly recognizable; 5: Heavy growth, too many colonies to count, but no growth over the entire streak; 6: Full growth, barely any single colonies still apparent, growth over the entire streak; conditions: for Bacterial growth after inoculation: All-purpose cleaner, 6 d
From the text: (§1) The tested cleaning composition was an all-purpose cleaner without preservatives and having a pH of 7.7, the skin lotion was a body lotion without preservatives and having a pH of 7.1, and the shampoo was a hair shampoo without preservatives and having a pH of 6.9.
(§2) The cleaning composition was admixed with particular concentrations of guanidine carbonate and guanidine hydrochloride and homogenized. The body lotion and the hair shampoo were each admixed and homogenized with guanidine hydrochloride and with octane-1,2-diol alone or in combination.
(§3) The batches of the products thus obtained were inoculated repeatedly at particular intervals with bacteria mixtures or yeast mixtures that are used as standard for microbiological stress tests of industrial products or cosmetic products (bacteria mixture 1 and 2, yeast mixture 1 and 2).
(§4) The inoculum was added to the respective sample in each inoculation at 2% (v/w) as a fresh cell suspension in a physiological saline solution (0.9% NaCl). The cell count of the inoculum added was 10^8-10^9/ml for the bacteria mixtures, 10^7-10^8/ml for the yeast mixtures, consisting in equal parts of the individual bacteria strains or yeast strains.
(§5) The cell suspension of the bacteria mixtures was produced by growing the individual bacteria at 30° C. for 24 h in liquid culture on a shaker. The medium used to grow the bacteria from bacteria mixtures 1 and 2 was Müller-Hinton liquid medium. The bacteria from bacteria mixture 3 were grown in Müller-Hinton liquid medium that had been adjusted to pH 9.5 to 9.7 with an alkaline buffer solution beforehand. After growing, the individual liquid cultures were centrifuged, and the cells were resuspended in physiological saline solution. In order to adjust the mixtures to a total cell count of 10^8 to 10^9/ml, the individual bacteria suspensions, if necessary, were diluted accordingly before being combined with saline solution. The cell count of the inoculum suspensions was determined in each case by chamber counting.
(§6) In the examples, the samples were inoculated three times at weekly intervals with the respective cell suspensions (2% v/w) and the evolution of the bacteria or yeasts was followed by a semiquantitative evaluation method. After each inoculation, microbial infestation in the samples was evaluated in each case after incubation at 30° C. for 6 to 7 days. For this purpose, an aliquot was taken from each sample after homogenization using a sterile plastic inoculation loop (10 μl) and streaked evenly on agar plates (bacteria mixture 1 and 2 on tryptic soy agar, bacteria mixture 3 on DSMZ 31 alkaline nutrient agar, Sabouraud glucose-agar in the case of yeasts). The streaked agar plates were then incubated at 30° C. for 48 hours (bacteria mixture 1 and 2) or 5 to 7 days (bacteria mixture 3), or at 25° C. for 72 hours (yeast mixtures). After incubation, the bacteria colonies or yeast colonies that have grown on the agar plates were visually evaluated and quantified according to the following scheme:
Inoculation 2% (w/v) with bacteria mixture 1, cell count 10^9/ml

yeast mixture 1 = experiment: Repeated-inoculation microbiological stress test of all-purpose cleaner, yeast mixture 1; assay type: cell-based; design: key to Yeast growth after inoculation: 0: No growth; Minimal growth, 1 to 10 colonies visible over the entire streak; 2: Light growth, maximum 100 colonies; Moderate growth, maximum 300 to 400 colonies; Uniform growth, >400 colonies, single colonies still clearly recognizable; 5: Heavy growth, too many colonies to count, but no growth over the entire streak; 6: Full growth, barely any single colonies still apparent, growth over the entire streak; conditions: for Yeast growth after inoculation: All-purpose cleaner, 6 d
From the text: as §1, §2, §3, §4
The cell suspension of the yeast mixtures was produced by growing the yeast strains on Sabouraud glucose-agar at 25° C. for 48 hours and washing down the cell lawn in each case with physiological saline solution (0.9% NaCl). Further steps for establishment of a cell count of the inoculum suspension of 10^7/ml to 10^8/ml were effected analogously to the production of the bacteria suspensions.
as §6
Inoculation 2% (w/v) with yeast mixture 1, cell count 10^8/ml

bacteria mixture 3 = experiment: Repeated-inoculation microbiological stress test of all-purpose cleaner, bacteria mixture 3 (alkaliphilic bacteria); assay type: cell-based, Nesterenkonia spec.; design: key to Bacteria growth after inoculation: 0: No growth; Minimal growth, 1 to 10 colonies visible over the entire streak; 2: Light growth, maximum 100 colonies; Moderate growth, maximum 300 to 400 colonies; Uniform growth, >400 colonies, single colonies still clearly recognizable; 5: Heavy growth, too many colonies to count, but no growth over the entire streak; 6: Full growth, barely any single colonies still apparent, growth over the entire streak; conditions: for Bacteria growth after inoculation: All-purpose cleaner, 7 d
From the text: as §1, §2
The cleaning composition was additionally inoculated repeatedly at particular intervals with a special inoculum consisting of a mixture of alkaliphilic bacteria (bacteria mixture 3) that had been isolated from a bacterially contaminated cleaning composition having a pH of 9.8.
as §4, §5, §6
Inoculation 2% (w/v) with bacteria mixture 3, cell count 10^9/ml

[1] = +1000 ppm guanidine carbonate (656 ppm guanidine) pH 9.3, 1. inoculation
[2] = +1000 ppm guanidine carbonate (656 ppm guanidine) pH 9.3, 2. inoculation
[3] = +1000 ppm guanidine carbonate (656 ppm guanidine) pH 9.3, 3. inoculation

N=C(N)N.N=C(N)N.O=C(O)O [guanidine carbonate]
Bacterial growth after inoculation (bacteria mixture 1; +1000 ppm guanidine carbonate (656 ppm guanidine) pH 9.2, 1. inoculation): 0 | Bacterial growth after inoculation (bacteria mixture 1; +1000 ppm guanidine carbonate (656 ppm guanidine) pH 9.2, 2. inoculation): 0 | Bacterial growth after inoculation (bacteria mixture 1; +1000 ppm guanidine carbonate (656 ppm guanidine) pH 9.2, 3. inoculation): 5 | Bacterial growth after inoculation (bacteria mixture 1; +1500 ppm guanidine carbonate (984 ppm guanidine) pH 9.5, 1. inoculation): 0 | Bacterial growth after inoculation (bacteria mixture 1; +1500 ppm guanidine carbonate (984 ppm guanidine) pH 9.5, 2. inoculation): 0 | Bacterial growth after inoculation (bacteria mixture 1; +1500 ppm guanidine carbonate (984 ppm guanidine) pH 9.5, 3. inoculation): 0 | stability of the all-purpose cleaner to microbial infestation by bacteria (bacteria mixture 1; addition of 659 ppm of guanidine in the form of guanidine carbonate at pH 9.2 or pH 9.5): distinct improvement in stability | Yeast growth after inoculation (yeast mixture 1; [1]): 1 (Minimal growth, 1 to 10 colonies visible over the entire streak) | Yeast growth after inoculation (yeast mixture 1; [2]): 1 (Minimal growth, 1 to 10 colonies visible over the entire streak) | Yeast growth after inoculation (yeast mixture 1; [3]): 3 (Moderate growth, maximum 300 to 400 colonies) | Yeast growth after inoculation (yeast mixture 1; +2500 ppm guanidine carbonate (1640 ppm guanidine) pH 9.9, 1. inoculation): 0 | Yeast growth after inoculation (yeast mixture 1; +2500 ppm guanidine carbonate (1640 ppm guanidine) pH 9.9, 2. inoculation): 0 | Yeast growth after inoculation (yeast mixture 1; +2500 ppm guanidine carbonate (1640 ppm guanidine) pH 9.9, 3. inoculation): 0 | Yeast growth after inoculation (yeast mixture 1; +5000 ppm guanidine carbonate (3280 ppm guanidine) pH 10.4, 1. inoculation): 0 | Yeast growth after inoculation (yeast mixture 1; +5000 ppm guanidine carbonate (3280 ppm guanidine) pH 10.4, 2. inoculation): 0 | Yeast growth after inoculation (yeast mixture 1; +5000 ppm guanidine carbonate (3280 ppm guanidine) pH 10.4, 3. inoculation): 0 | stability of the all-purpose cleaner to microbial infestation by yeasts (yeast mixture 1; addition of 659 ppm of guanidine in the form of guanidine carbonate at pH 9.9): distinct improvement in stability | Bacteria growth after inoculation (bacteria mixture 3; +500 ppm guanidine carbonate (328 ppm guanidine) pH 9.1, 1. inoculation): 0 | Bacteria growth after inoculation (bacteria mixture 3; +500 ppm guanidine carbonate (328 ppm guanidine) pH 9.1, 2. inoculation): 2 (Light growth, maximum 100 colonies) | Bacteria growth after inoculation (bacteria mixture 3; +500 ppm guanidine carbonate (328 ppm guanidine) pH 9.1, 3. inoculation): 2 (Light growth, maximum 100 colonies) | Bacteria growth after inoculation (bacteria mixture 3; [1]): 0 | Bacteria growth after inoculation (bacteria mixture 3; [2]): 0 | Bacteria growth after inoculation (bacteria mixture 3; [3]): 1 (Minimal growth, 1 to 10 colonies visible over the entire streak) | Bacteria growth after inoculation (bacteria mixture 3; +2500 ppm guanidine carbonate (1640 ppm guanidine) pH 10.0, 1. inoculation): 0 | Bacteria growth after inoculation (bacteria mixture 3; +2500 ppm guanidine carbonate (1640 ppm guanidine) pH 10.0, 2. inoculation): 0 | Bacteria growth after inoculation (bacteria mixture 3; +2500 ppm guanidine carbonate (1640 ppm guanidine) pH 10.0, 3. inoculation): 0 | Bacteria growth after inoculation (bacteria mixture 3; +5000 ppm guanidine carbonate (3280 ppm guanidine) pH 10.5, 1. inoculation): 0 | Bacteria growth after inoculation (bacteria mixture 3; +5000 ppm guanidine carbonate (3280 ppm guanidine) pH 10.5, 2. inoculation): 0 | Bacteria growth after inoculation (bacteria mixture 3; +5000 ppm guanidine carbonate (3280 ppm guanidine) pH 10.5, 3. inoculation): 0 | stability of the all-purpose cleaner to microbial infestation by bacteria (bacteria mixture 3; addition of 330 ppm of guanidine in the form of guanidine carbonate at pH 9.1): distinct improvement in stability
